Measurements: US11155561B2, “Substituted glutarimides as Btk inhibitors” (SHANGHAI MEIZER PHARMACEUTICALS CO., LTD., priority 2017, dated 2021)

Tests used:
[1] = test system: RPMI 8226 cells (human multiple myeloma cells); assay: Inhibition of proliferation of RPMI 8226 cells by CCK8 assay; format: cell-based; conditions: 48 hours
Protocol: Example 7 Testing the Inhibitory Effect of Formula Compounds on the Proliferation of RPMI 8226 Cells (Human Multiple Myeloma Cells) by CCK8 Assay
The inhibitory effect of the compound on the proliferation of RPMI 8226 cells (commercially available from ATCC) was determined by the CCK8 assay in vitro. The experimental steps were as follows:
RPMI 8226 cells were cultured in 1640 medium containing 10% calf serum, seeded in a 96-well plate with 2×10^5 cells/well, and placed in a 37° C., 5% CO2 incubator. The compound was dissolved in dimethyl sulfoxide (DMSO) to obtain a solution with a concentration of 10 mM, and then diluted to the desired concentration with a phosphate buffer solution. The solution was added to the above 96-well plate. Each concentration has 2 wells with 10 μl per well. Each concentration was tested in duplicate. As a control, DMSO was diluted in the corresponding gradient and then added to the plate.
After the 96-well plate was cultured in a 37° C., 5% CO2 cell incubator for 48 hours, 10 μl of CCK8 solution was added to each well, and it was cultured in the incubator for another 1 to 4 hours. The light absorption value at 465 nm was measured.
The relative survival rate of the cells after the compound treatment was calculated based on the light absorption value.
The IC50 of the compound against RPMI 8226 cells was calculated by software.

[2] = target: T1, Btk (Homo sapiens, UniProt Q06187); assay: Btk protein degradation activity by Western blot in RPMI8226 cells; format: cell-based; set-up: degradation activity of the compound (10 μM) on Btk protein in RPMI8226 cells; endogenous in cells; host or cells: RPMI8226; conditions: compound 10 μM, 24 hours
Protocol: Example 6 Testing the Btk Protein Degradation Activity of Compounds by Western Blot
Cell lines: RPMI8226 Cell line was cultured in RPMI1640 medium containing 10% calf serum in a 37° C., 5% CO2, and saturated humidity incubator.
DMSO control group and compound intervention group (10 μM) were set. Cells was collected after the treatment for 24 hours, then 100 μL of pre-chilled cell lysate was added and cells were lysed on ice for 30 minutes. Total cell protein was extracted, and protein concentration was determined and quantified by […] (BCA) method. After routine gelatinization, loading, electrophoresis, then transferring to membrane and blocking, rabbit anti-human Btk (1:500) was added, and incubated at 4° C. overnight. The mixture was rinsed and then horseradish peroxidase labeled goat anti-rabbit IgG (1:5000) was added. After the rinsing it was developed by the ECL developing solution, the Bio-Rad gel imaging system was used for scanning and imaging, and the computer software was used for analysis. […] (GAPDH) was used as an internal control.
Image J software was used to analyze the gray scale of each band to calculate the Btk protein degradation rate of the compound.

[3] = test system: DOHH2 cells (human B cell lymphoma cells); assay: Inhibition of proliferation of DOHH2 cells by CTG assay; format: cell-based; conditions: DOHH-2, compound 10 μM, 72 hours
Protocol: (§1) Example 8 Testing the Inhibitory Effect of Formula Compounds on the Proliferation of DOHH2 Cells (Human B Cell Lymphoma Cells) and SU-DHL-6 (Human B Cell Lymphoma Cells) by CTG Assay
(§2) The […] was used to determine the inhibitory effect of the compounds on the proliferation of DOHH2 cells (available from ATCC) and SU-DHL-6 cells (available from ATCC) in vitro. Cells were cultured and compounds were prepared referring to Example 7. The cell plating density was 1×10^4 cells/well for DOHH2 cells, and 1.5×10^4 cells/well for SU-DHL-6 cells. The culture time after the administration was 72 hours. After that an appropriate amount of CTG reagent was added, the luminescence value was measured, and the inhibition rate was calculated.

[4] = target: T1, Btk; assay: Inhibition activity of compounds on Btk by Caliper assay; format: biochemical; conditions: compound 100 nM, Btk kinase
Protocol: Example 5 Testing the Inhibition Activity of Compounds on Btk by Caliper Assay
The experimental steps were as follows:
Preparation of 1× kinase reaction buffer (50 mM HEPES, PH 7.5; 0.0015% Brij-35) and kinase reaction termination solution (100 mM HEPES, PH 7.5; 0.0015% Brij-35; 0.2% Coating Reagent; 50 mM EDTA);
Preparation of experimental samples: 100 μL of 5 μM sample solution (dissolved in 100% DMSO) was added to a 96-well plate to obtain a 50× sample solution. As a control, two wells were set containing only 100 μL of 100% DMSO on the same plate. One was served as a control without samples and the other was served as a control without enzymes. 10 μL of sample and 90 μL of 1× kinase reaction buffer were added to a 96-well plate as a transfer plate. The transfer plate was shaken for 10 minutes.
Preparation of the test plate: taking 5 μL each of the prepared samples in the 96-well transfer plate into a 384-well plate.
Kinase reaction: to 5 μL of 5× compound solution (dissolved in DMSO, diluted 10 times with water) was added 10 μL of 2.5× Btk kinase solution (kinase was diluted with 1× kinase reaction buffer), and incubated at room temperature for 10 min, then 10 μL of 2.5× substrate peptide solution (FAM-labeled peptide and ATP were diluted with 1× kinase reaction buffer) was added.
Termination of the kinase reaction: 25 μL of kinase termination solution was added after being reacted at 28° C. for a period of time.
The fluorescence (F) was tested on a Caliper and data was collected.
The inhibition rate of kinase activity was calculated: the percent inhibition rate of kinase activity=(FDMSO control−Fsample)/(FDMSO control−Fnegative control)×100, with DMSO as the solution control, and no kinase as the negative control.

[5] = test system: SU-DHL-6 (human B cell lymphoma cells); assay: Inhibition of proliferation of SU-DHL-6 cells by CTG assay; format: cell-based; conditions: compound 10 μM, 72 hours
Protocol: as §1, §2

T1 sequence (Q06187 whole entry): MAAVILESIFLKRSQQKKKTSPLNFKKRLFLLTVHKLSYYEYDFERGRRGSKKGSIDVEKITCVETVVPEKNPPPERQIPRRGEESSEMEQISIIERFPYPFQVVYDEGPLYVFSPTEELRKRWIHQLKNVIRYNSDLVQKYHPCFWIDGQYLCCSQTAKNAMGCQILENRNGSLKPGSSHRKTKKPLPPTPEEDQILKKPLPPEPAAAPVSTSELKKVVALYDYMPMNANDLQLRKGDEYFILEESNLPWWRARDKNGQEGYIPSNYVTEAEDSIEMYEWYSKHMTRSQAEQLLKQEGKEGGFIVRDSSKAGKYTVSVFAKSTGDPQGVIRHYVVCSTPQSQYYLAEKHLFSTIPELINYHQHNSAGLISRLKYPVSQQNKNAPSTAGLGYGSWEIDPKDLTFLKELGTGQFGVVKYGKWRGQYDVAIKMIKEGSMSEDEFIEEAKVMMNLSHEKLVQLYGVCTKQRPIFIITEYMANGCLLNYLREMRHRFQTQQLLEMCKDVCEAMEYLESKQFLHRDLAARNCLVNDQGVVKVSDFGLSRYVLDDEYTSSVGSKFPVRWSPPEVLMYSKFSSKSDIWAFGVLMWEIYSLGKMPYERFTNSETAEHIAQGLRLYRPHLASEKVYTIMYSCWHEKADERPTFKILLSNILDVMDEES

## Nc1ncnc2c1c(-c1ccc(Oc3ccccc3)cc1)nn2[C@@H]1CCCN(CCCCCC(=O)Nc2cccc3c2C(=O)N(C2CCC(=O)NC2=O)C3=O)C1 (stereo partly shown) [Compound 3]
[1]
  IC50: 34 µM
[2]
  Degradation activity: ++++ (“++++” means the degradation rate is greater than 90%)
[3]
  inhibition at 10 µM: 87%
[4]
  inhibition at 0.1 µM: 92%
[5]
  inhibition at 10 µM: 60%

## Nc1ncnc2c1c(-c1ccc(Oc3ccccc3)cc1)nn2C1CCCN(CCOCCOCCOc2cccc3c2C(=O)N(C2CCC(=O)NC2=O)C3=O)C1 (stereo not shown) [Compound 7]
[1]
  IC50: 83 µM
[2]
  Degradation activity: ++++ (“++++” means the degradation rate is greater than 90%)
[3]
  inhibition at 10 µM: 63%
[4]
  inhibition at 0.1 µM: 99%
[5]
  inhibition at 10 µM: 53%

## Nc1ncnc2c1c(-c1ccc(Oc3ccccc3)cc1)nn2C1CCCN(CCOCCOCCNc2cccc3c2C(=O)N(C2CCC(=O)NC2=O)C3=O)C1 (stereo not shown) [Compound 14]
[1]
  IC50: 6 µM
[2]
  Degradation activity: ++++ (“++++” means the degradation rate is greater than 90%)
[3]
  inhibition at 10 µM: 98%
[4]
  inhibition at 0.1 µM: 99%
[5]
  inhibition at 10 µM: 87%

## Nc1ncnc2c1c(-c1ccc(Oc3ccccc3)cc1)nn2C1CCCN(CCOCCOCCOCCOc2cccc3c2C(=O)N(C2CCC(=O)NC2=O)C3=O)C1 (stereo not shown) [Compound 16]
[2]
  Degradation activity: ++++ (“++++” means the degradation rate is greater than 90%)
[3]
  inhibition at 10 µM: 84%
[4]
  inhibition at 0.1 µM: 95%
[5]
  inhibition at 10 µM: 71%
